In patent publication US20260234180A1, “AMINO ACID DERIVATIVE, PREPARATION METHOD THEREFOR, AND PHARMACEUTICAL COMPOSITION FOR TREATING HEPATITIS, COMPRISING SAME” (priority 2021, published 2026):

How the values were obtained:
[1] = test system: HBV virus; assay: HBV infection of HepG2-NTCP cells, Southern blot analysis; type: cell-based, hepatitis B virus (HBV); conditions: 20 μM
Description: Specifically, the HepG2-NTCP cell line was cultured on a 6-well plate, incubation was performed overnight, HBV inhibitors were treated at a concentration of 20 μM, and the positive control Myrcludex-B (MyrB) was treated at a concentration of 200 nM, followed by culture for 24 hours. After HBV infection into the cells to make HBV 3000 genome equivalent per ml/cell (Geq/cell), the cell culture medium was replaced (medium changing, MC) a day after the viral infection to remove the virus unattached to cell membranes. In order to measure an amount of virus that entered the cell, medium changing (MC) was performed once more 4 days after viral infection. 2 days after replacement, HBeAg ELISA analysis was performed using a supernatant, and Southern blot analysis was performed with cell pellets.
First, the cell pellets were pipetted with 100 μl of HEPES lysis buffer (10 mM HEPES, 100 mM NaCl, 1 mM EDTA, 1% NP-40), placed on ice for 20 minutes, and then centrifuged with a centrifuge under the conditions at 4° C. and 13000 rpm. After transferring the supernatant only to the new microtube, 4.5 μl of nuclease buffer I (10 mM CaCl2), 12 mM MgCl2, DNase 10 units) was added to carry out a reaction at 37° C. for 2 hours, and 40 μl of 26% PEG solution was added, followed by a reaction on ice for 1 hour. After centrifuging with the centrifuge at 4° C. and 13000 rpm for 30 minutes, and the supernatant was removed cleanly. After releasing the pellets with 100 μl of nuclease buffer II (10 mM Tris, 8 mM CaCl2), 6 mM MgCl2), 287.5 μl of 0.5% SDS buffer (25 mM Tris, 10 mM EDTA, 0.5% SDS, 100 mM NaCl) was added, and 12.5 μl of 20 mg/ml proteinase K was added, followed by a reaction at 37° C. for 2 hours. 400 μl of phenol-chloroform-isoamyl alcohol was added, centrifugation was performed at room temperature at 13000 rpm after voltexing, the supernatant was transferred to a new tube, 40 μl of 3 M NaOAc was added, and 800 μl of 100% ethanol was added for inverting, followed by a reaction overnight at −20° C. After performing centrifugation at 4° C. and 13000 rpm for 30 minutes, 800 μl of 70% ethanol was added and mixed to the pellet obtained by removing the supernatant, centrifugation was performed at 4° C. and 13000 rpm for 10 minutes, and then the supernatant was discarded. The ethanol was dried for 5 minutes to leave only the HBV DNA pellets, and then the pellets were dissolved again in 15 μl of TE buffer (10 mM Tris, 1 mM EDTA). HBV DNA samples were loaded in 1% agarose gel, and electrophoresis was performed. It was then immersed in denature buffer (0.25 N NaOH, 1 M NaCl) for 30 minutes to denature dsDNA of HBV into ssDNA. The DNA in the gel was transferred to a Nylon membrane using a transfer buffer (0.4 M NaOH), the membrane was soaked with a 2×SSC buffer (sigma, cat #85639) for neutralization, followed by drying in air. The membrane was immersed in a church buffer (10% BSA, 0.5 M EDTA, 1 M NaPi, 20% SDS), and the radioisotopes were hybridized using a Mega prime kit (GE healthcare, RPN1607). After washing three times with washing buffer (2×SSC, 0.1% SDS), measurement was performed using radioisotope measurement equipment, and a relative replication rate (%) to the negative control group (Mock) was calculated and shown.

[2] = biological target: T1, NTCP (Na+ taurocholate cotransporting peptide), HepG2-hNTCP-C4 cell line (Homo sapiens, UniProt Q14973); assay: Inhibition of binding between FITC-labelled PreS1 and NTCP expressing cell line, flow cytometry
T1 construct: expressed in transfected cells; host or cells: HepG2-hNTCP-C4 (HepG2 cells expressing human NTCP)
T1 sequence (Q14973 1-349): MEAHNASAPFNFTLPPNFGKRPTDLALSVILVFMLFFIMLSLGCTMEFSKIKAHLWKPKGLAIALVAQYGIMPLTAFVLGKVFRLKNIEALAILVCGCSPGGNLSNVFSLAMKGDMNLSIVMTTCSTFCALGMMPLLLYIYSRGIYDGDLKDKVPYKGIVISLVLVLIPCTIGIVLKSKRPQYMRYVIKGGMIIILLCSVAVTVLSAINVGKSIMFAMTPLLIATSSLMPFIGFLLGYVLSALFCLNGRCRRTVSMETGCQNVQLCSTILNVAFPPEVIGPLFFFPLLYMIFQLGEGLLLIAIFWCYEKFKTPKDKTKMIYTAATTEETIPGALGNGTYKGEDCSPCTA
Description: HepG2-hNTCP-C4 cell line, a cell line expressing NTCP, was seeded in a 6 well plate at a density of 2×10^5/well and incubated at 4° C. for 30 minutes when the confluency reached 80% after overnight incubation for 2 days. Thereafter, 20 nM PreS1 (Myr-GTNL […]-Lys(FITC) (SEQ ID NO: 1)) and the compounds in Example 1, Examples 38 to 56 or the compound in Comparative Example 1 were treated by diluting in culture media at 4° C. at a concentration of 50 µM respectively, and the media was suctioned after 2 hours, followed by washing 3 times with 4° C. PBS. In order to take the cells off from the plate, 500 μl of 0.5 mM EDTA PBS solution was treated, and then incubation was performed at 37° C. for 15 minutes to check whether the cells fell off through an optical microscope. After taking off the cells by pipetting, the cells were collected in a 1.5 ml tube and centrifuged (4000 rpm, 4° C., 3 min). After suctioning the supernatant, the pellet was washed 3 times with 4° C. PBS, and then green fluorescence was measured via flow cytometry. In this case, taurocholic acid (TCA), a compound known as a substrate of NTCP to reduce the entry of HBV or HDV, was used as a positive control group.
In the graph at the top of FIG. 1, black (1) and red (2) indicate a negative control group with no treatment and an HBV-induced group (HBV preS1) solely treated with PreS1, respectively. Blue (HBV preS1+HBV entry inhibitor) (3) is the fluorescence value for each of Examples or Comparative Examples, evaluated that the closer to the negative control group, the more inhibited the binding between PreS1 and the NTCP cell line.
The experimental method was the same as in the Experimental Example 1-1, and 20 nM PreS1 and each compound were treated at 4 concentrations (0.2 μM, 2 μM, 10 μM, 50 μM).
With an expectation that there is a structure-activity relationship among compounds composed of bile acid and amino acids, for each of bile acids in Comparative Example 1 (lithocholic acid, LCA), Comparative Example 2 (ursodeoxycholic acid, UDCA), Comparative Example 3 (cholic acid, CA), Comparative Example 4 (hyodeoxycholic acid, HDCA), Comparative Example 5 (deoxycholic acid, DCA), and Comparative Example 6 (chenodeoxycholic acid, CDCA), an evaluation experiment was conducted on an ability to inhibit the binding between PreS1 and NTCP expressing cell lines, and also for Examples 1 (LCA-Ile) and Example 44 (LCA-Val) as well as the compounds in Example 2 (UDCA-Ile), Example 3 (UDCA-Val), Example 6 (CA-Ile), Example 7 (CA-Val), Example 8 (HDCA-Ile), Example 9 (HDCA-Val), Example 10 (DCA-Ile), Example 11 (DCA-Val), Example 14 (CDCA-Ile), and Example 15 (CDCA-Val) in which bile acid parts (lithocholic acid) of Example 1 (LCA-Ile) and Example 44 (LCA-Val) were substituted with other types of bile acids in Comparative Examples 2 to 6, an evaluation experiment was conducted on an ability to inhibit the binding between PreS1 and NTCP expressing cell lines. The experimental method was the same as in the Experimental Example 1-1, and 18 compounds in the Comparative Examples 1 to 6, Examples 1 to 3, Examples 6 to 11, Examples 14 to 15, and Example 44 were treated at a concentration of 50 µM along with 20 nM PreS1.
In FIG. 9, an evaluation experiment was conducted to check a degree of inhibiting the binding between PreS1 and NTCP expressing cell lines for compounds in Examples 4 to 5, Examples 12 to 13, Examples 16 to 17, and Comparative Examples 2 (ursodeoxycholic acid, UDCA), Comparative Examples 5 (deoxycholic acid, DCA), and Comparative Examples 6 (chenodeoxycholic acid, CDCA) according to the present disclosure. The experimental method was the same as the Experimental Example 1-1.
In the Experimental Examples 1-4, it was determined whether there is additionally concentration dependence for Example 4 (UDCA-Trp), a compound with good inhibitory ability. […]

Row | SMILES | amount of HBeAg DNA detected compared to the negative control group (Mock) [1] | effect of inhibiting the binding between PreS1 and NTCP expressing cell lines by treatment concentration ([2]; 0.2 μM, 2 μM, 10 μM, 50 μM, 20 nM PreS1) | relative fluorescence intensity compared to Comparative Example 1 (LCA) ([2]; compound 50 µM, 20 nM PreS1, 4° C., 2 hours, lower = more inhibited binding)
1 | C[C@H](CCC(=O)N[C@@H](Cc1ccc(O)cc1)C(=O)O)[C@H]1CC[C@H]2[C@@H]3CC[C@@H]4C[C@H](O)CC[C@]4(C)[C@H]3CC[C@]12C [Example 52, (S)-2-((R)-4-((3R,5R,8R,9S,10S,13R,14S,17R)-3-hydroxy-10,13-dimethyl-hexadecahydro-1H-cyclopenta[a]phenanthren-17-yl)pentanamido)-3-(4-hydroxyphenyl)propanoic acid] | relatively less amount | concentration dependent | low and lower
2 | C[C@H](CCC(=O)N[C@@H](CCC(=O)O)C(=O)O)[C@H]1CC[C@H]2[C@@H]3CC[C@@H]4C[C@H](O)CC[C@]4(C)[C@H]3CC[C@]12C [Example 55, (S)-2-((R)-4-((3R,5R,8R,9S,10S,13R,14S,17R)-3-hydroxy-10,13-dimethyl-hexadecahydro-1H-cyclopenta[a]phenanthren-17-yl)pentanamido)pentanedioic acid] | relatively less amount | – | –
3 | CC(C)[C@H](NC(=O)CC[C@@H](C)[C@H]1CC[C@H]2[C@@H]3CC[C@@H]4C[C@H](O)CC[C@]4(C)[C@H]3CC[C@]12C)C(=O)N[C@@H](Cc1c[nH]c2ccccc12)C(=O)O [Example 25, (S)-2-((S)-2-((R)-4-((3R,5R,8R,9S,10S,13R,14S,17R)-3-hydroxy-10,13-dimethyl-hexadecahydro-1H-cyclopenta[a]phenanthren-17-yl)pentanamido)-3-methylbutanamido)-3-(1H-indol-3-yl)propanoic acid] | relatively less amount | – | –
